pIC50: −log10 of the molar value. Values belong to the molecule of their own block, whether it stands above or below them.
Tests used:
[1] = target: Insulin-like growth factor 1 receptor (Homo sapiens, UniProt P08069); test: Inhibition of IGF-1 receptor (unknown origin)
[2] = tested on: Liver microsome; test: Drug level in human liver microsomes treated with NVP-AEW541 by LC-MS/MS analysis; format: ADME
[3] = target: Tyrosine-protein kinase JAK1 (Homo sapiens, UniProt P23458); test: Inhibition of Jak1 (unknown origin)
[4] = target: Epidermal growth factor receptor (Homo sapiens, UniProt P00533); test: Inhibition of Her1 (unknown origin)
[5] = target: Phosphatidylinositol 4,5-bisphosphate 3-kinase catalytic subunit beta isoform (Homo sapiens, UniProt P42338); test: Inhibition of PI3K-beta (unknown origin)
[6] = target: Phosphatidylinositol 4,5-bisphosphate 3-kinase catalytic subunit alpha isoform (Homo sapiens, UniProt P42336); test: Inhibition of PI3K-alpha (unknown origin)
[7] = target: Voltage-gated inwardly rectifying potassium channel KCNH2 (Homo sapiens, UniProt Q12809); test: Inhibition of human ERG by dofetilide binding assay
[8] = tested on: Liver microsome; test: Drug metabolism in human liver microsomes assessed as 3-(4-amino-7-((cis)-3-(azetidin-1-ylmethyl)cyclobutyl)-7H-pyrrolo[2,3-d]pyrimidin-5-yl)phenol formation by LC-MS/MS analysis; format: ADME
[9] = target: Insulin receptor (Homo sapiens, UniProt P06213); test: Inhibition of Ins receptor (unknown origin)
[10] = target: T1, Ephrin type-B receptor 4 (Homo sapiens, UniProt P54760); test: Inhibition of EphB4 receptor (unknown origin)
T1 sequence (P54760 whole entry): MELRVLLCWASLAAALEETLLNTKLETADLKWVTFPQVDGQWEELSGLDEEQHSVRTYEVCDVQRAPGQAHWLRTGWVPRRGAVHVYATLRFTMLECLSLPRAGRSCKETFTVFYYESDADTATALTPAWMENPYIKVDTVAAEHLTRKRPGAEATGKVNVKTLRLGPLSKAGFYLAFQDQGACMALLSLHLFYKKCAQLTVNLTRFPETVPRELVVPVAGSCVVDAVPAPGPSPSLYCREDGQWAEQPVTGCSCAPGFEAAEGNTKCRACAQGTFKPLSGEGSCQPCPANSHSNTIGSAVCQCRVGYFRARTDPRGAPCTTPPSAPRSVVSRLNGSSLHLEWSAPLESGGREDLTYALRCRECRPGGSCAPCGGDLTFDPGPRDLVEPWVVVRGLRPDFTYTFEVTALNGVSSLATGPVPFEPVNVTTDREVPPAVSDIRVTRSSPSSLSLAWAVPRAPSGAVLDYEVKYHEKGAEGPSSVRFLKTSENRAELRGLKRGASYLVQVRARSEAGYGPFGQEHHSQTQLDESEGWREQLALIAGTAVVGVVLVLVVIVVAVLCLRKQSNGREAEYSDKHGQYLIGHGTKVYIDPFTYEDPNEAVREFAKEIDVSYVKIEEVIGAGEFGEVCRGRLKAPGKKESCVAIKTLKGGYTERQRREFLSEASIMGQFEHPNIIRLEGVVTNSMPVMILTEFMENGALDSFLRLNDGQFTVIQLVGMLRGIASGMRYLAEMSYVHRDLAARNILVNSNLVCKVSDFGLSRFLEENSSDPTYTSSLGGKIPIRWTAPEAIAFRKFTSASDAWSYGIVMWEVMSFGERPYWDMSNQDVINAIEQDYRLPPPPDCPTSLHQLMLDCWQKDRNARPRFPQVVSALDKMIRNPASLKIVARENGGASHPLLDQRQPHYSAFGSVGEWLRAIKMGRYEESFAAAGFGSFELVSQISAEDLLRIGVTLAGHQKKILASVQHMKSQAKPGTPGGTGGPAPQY

[11] = target: Proto-oncogene tyrosine-protein kinase receptor Ret (Homo sapiens, UniProt P07949); test: Inhibition of Ret (unknown origin)
[12] = target: Vascular endothelial growth factor receptor 2 (Homo sapiens, UniProt P35968); test: Inhibition of KDR (unknown origin)
[13] = target: Tyrosine-protein kinase Lck (Homo sapiens, UniProt P06239); test: Inhibition of Lck (unknown origin)
[14] = Solubility of compound in water; format: physicochemical; conditions: buffer
[15] = Permeability of compound at >= pH 7 by PAMPA assay; format: ADME
[16] = target: Cytochrome P450 2D6 (Homo sapiens, UniProt P10635); test: Effect on human CYP2D6 at 10 uM; format: ADME
[17] = target: Cytochrome P450 2C9 (Homo sapiens, UniProt P11712); test: Effect on human CYP2C9 at 10 uM; format: ADME
[18] = target: Cytochrome P450 3A4 (Homo sapiens, UniProt P08684); test: Effect on human CYP3A4 at 10 uM; format: ADME

Chain of Phosphatidylinositol 4,5-bisphosphate 3-kinase catalytic subunit alpha isoform (P42336 whole entry, canonical isoform): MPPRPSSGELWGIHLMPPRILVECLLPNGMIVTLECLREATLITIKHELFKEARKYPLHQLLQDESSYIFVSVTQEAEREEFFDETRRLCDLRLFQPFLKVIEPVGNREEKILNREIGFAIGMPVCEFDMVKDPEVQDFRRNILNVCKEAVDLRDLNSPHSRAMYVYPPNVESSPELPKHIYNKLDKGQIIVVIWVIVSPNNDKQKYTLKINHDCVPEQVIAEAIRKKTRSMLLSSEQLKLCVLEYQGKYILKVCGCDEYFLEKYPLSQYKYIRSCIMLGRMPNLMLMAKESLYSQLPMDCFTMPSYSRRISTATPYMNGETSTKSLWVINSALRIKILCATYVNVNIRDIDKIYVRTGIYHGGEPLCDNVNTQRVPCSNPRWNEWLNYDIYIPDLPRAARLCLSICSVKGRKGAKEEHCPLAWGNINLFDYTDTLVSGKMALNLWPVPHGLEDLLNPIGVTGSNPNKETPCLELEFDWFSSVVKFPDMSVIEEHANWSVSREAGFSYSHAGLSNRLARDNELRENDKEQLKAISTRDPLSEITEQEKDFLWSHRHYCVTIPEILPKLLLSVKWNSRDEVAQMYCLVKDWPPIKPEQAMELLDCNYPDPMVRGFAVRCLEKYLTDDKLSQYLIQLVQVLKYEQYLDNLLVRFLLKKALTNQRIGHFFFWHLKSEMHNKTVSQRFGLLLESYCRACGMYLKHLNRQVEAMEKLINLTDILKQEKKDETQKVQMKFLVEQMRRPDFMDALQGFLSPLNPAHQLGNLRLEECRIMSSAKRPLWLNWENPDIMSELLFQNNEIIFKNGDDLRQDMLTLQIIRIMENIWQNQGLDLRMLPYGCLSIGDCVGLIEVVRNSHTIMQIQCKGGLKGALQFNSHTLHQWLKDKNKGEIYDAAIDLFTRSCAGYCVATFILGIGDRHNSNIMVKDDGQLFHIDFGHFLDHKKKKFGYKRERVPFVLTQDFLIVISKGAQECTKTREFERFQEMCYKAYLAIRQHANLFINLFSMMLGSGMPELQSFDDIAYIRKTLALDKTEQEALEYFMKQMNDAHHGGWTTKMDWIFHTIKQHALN
Chain of Tyrosine-protein kinase JAK1 (P23458 whole entry): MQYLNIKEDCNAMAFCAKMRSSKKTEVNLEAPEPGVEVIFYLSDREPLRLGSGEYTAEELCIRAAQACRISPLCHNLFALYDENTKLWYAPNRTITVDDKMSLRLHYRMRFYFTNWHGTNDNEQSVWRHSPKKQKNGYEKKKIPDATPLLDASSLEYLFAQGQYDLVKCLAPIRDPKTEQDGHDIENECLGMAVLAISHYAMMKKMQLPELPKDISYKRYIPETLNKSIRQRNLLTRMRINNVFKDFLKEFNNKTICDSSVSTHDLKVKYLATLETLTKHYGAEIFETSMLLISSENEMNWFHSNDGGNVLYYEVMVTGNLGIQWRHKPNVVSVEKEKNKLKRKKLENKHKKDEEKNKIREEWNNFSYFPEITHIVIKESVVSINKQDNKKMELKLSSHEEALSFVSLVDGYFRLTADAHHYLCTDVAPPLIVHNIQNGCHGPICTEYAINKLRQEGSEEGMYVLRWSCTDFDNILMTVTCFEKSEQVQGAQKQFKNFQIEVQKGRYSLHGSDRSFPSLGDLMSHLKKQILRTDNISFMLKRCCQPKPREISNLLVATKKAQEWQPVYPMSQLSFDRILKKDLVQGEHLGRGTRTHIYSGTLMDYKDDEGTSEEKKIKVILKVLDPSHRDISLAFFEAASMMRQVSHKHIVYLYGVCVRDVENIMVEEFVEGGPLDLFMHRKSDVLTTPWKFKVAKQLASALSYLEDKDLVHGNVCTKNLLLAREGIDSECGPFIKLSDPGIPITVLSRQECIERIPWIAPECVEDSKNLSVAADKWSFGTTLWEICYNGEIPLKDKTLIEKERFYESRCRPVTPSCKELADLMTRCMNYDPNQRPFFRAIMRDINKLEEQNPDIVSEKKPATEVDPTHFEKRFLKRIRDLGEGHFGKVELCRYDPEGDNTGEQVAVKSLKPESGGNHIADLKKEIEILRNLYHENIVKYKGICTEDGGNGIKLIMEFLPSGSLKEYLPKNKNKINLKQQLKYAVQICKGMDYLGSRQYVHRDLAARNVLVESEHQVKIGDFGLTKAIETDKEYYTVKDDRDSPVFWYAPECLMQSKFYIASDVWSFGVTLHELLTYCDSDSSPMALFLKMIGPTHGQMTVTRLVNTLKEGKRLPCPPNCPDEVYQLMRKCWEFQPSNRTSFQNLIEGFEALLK
Chain of Insulin-like growth factor 1 receptor (P08069 31-736 limits assumed): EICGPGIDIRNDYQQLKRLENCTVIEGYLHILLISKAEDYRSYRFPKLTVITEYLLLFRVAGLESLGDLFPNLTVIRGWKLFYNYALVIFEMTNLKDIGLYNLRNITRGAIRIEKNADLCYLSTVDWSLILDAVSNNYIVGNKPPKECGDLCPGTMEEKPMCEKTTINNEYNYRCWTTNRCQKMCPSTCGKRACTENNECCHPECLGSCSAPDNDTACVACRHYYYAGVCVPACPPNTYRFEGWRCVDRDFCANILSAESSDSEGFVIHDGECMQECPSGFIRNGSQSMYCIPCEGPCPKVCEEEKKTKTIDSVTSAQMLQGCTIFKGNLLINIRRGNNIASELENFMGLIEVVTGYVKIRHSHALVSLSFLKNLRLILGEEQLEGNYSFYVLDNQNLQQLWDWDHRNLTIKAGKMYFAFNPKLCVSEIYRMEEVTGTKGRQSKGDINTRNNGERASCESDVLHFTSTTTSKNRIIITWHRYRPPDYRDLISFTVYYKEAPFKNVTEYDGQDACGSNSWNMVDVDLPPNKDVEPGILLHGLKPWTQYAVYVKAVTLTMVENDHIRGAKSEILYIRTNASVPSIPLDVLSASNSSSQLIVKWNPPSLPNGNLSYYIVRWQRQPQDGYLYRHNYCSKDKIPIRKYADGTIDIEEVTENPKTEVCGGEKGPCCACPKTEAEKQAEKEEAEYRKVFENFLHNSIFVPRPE
Chain of Insulin-like growth factor 1 receptor (P08069 741-1367 limits assumed): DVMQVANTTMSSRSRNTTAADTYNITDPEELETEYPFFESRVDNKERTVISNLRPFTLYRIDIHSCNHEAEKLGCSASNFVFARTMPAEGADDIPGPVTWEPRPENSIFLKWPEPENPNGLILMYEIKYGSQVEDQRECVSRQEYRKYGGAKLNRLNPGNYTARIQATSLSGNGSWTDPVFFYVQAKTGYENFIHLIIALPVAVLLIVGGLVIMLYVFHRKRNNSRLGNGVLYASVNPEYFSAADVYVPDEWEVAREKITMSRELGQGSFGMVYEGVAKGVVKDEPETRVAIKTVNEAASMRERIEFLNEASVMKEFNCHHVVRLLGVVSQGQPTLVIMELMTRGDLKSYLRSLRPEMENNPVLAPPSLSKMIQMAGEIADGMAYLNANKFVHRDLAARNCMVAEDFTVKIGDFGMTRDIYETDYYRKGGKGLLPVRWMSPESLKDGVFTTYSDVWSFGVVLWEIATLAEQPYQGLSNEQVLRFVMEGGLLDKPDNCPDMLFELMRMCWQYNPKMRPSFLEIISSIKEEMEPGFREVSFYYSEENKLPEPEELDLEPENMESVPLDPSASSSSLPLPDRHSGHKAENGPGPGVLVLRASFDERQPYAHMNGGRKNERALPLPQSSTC
Chain of Epidermal growth factor receptor (P00533 whole entry, canonical isoform): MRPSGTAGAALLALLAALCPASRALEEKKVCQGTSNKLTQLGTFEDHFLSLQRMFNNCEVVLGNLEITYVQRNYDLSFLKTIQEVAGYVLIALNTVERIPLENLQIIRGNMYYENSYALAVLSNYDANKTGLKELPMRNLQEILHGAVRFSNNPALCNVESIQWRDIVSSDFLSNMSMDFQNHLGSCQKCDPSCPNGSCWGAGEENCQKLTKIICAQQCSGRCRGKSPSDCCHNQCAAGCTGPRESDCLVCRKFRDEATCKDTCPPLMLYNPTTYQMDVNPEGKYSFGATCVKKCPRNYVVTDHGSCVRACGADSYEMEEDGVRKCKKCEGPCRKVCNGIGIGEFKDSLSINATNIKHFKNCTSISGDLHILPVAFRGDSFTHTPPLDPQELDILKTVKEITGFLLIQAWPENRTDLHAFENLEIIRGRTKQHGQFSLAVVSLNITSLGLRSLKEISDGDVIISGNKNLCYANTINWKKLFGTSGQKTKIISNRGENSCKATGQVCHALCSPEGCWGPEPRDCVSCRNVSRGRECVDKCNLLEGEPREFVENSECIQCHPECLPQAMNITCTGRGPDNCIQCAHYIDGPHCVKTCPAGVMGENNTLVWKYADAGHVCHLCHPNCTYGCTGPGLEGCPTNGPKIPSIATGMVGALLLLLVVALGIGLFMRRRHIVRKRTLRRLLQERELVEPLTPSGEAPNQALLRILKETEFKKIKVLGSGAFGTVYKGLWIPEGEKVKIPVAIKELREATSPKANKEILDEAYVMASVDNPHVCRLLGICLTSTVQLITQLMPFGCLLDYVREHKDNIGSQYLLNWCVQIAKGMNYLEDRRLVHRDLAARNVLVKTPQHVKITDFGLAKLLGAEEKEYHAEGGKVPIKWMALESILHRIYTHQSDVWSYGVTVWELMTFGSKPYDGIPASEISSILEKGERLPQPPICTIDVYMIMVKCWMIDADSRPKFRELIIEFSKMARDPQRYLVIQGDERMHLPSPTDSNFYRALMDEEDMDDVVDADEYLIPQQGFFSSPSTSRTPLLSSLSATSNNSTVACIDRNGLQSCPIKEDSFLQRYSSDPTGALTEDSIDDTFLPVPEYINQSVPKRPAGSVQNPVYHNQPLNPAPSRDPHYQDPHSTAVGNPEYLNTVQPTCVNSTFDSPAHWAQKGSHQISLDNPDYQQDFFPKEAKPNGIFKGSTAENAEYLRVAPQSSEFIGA

SMILES: COCCOc1cccc(-c2cn([C@H]3C[C@@H](CN4CCC4)C3)c3ncnc(N)c23)c1
pIC50 [1]: 5.70

SMILES: Nc1ncnc2c1c(-c1cccc(OCC3CCCCC3)c1)cn2[C@H]1C[C@@H](CN2CCC2)C1
pIC50 [1]: 6.26

SMILES: Nc1ncnc2c1c(-c1cccc(OCC3CCC3)c1)cn2[C@H]1C[C@@H](CN2CCC2)C1
pIC50 [1]: 5.72

SMILES: Nc1ncnc2c1c(-c1cccc(O)c1)cn2[C@H]1C[C@@H](CN2CCC2)C1
Drug metabolism [2]: metabolite_detected

SMILES: Nc1ncnc2c1c(-c1cccc(OCC3CCCC3)c1)cn2[C@H]1C[C@@H](CN2CCC2)C1
pIC50 [1]: 6.08

SMILES: Nc1ncnc2c1c(-c1cccc(OCCO)c1)cn2[C@H]1C[C@@H](CN2CCC2)C1
pIC50 [1]: 5.10

SMILES: Nc1ncnc2c1c(-c1cccc(OCc3ccccc3)c1)cn2[C@H]1C[C@@H](CN2CCC2)C1
pIC50 [3]: < 5.00
pIC50 [4]: < 5.00
pIC50 [5]: < 5.05
pIC50 [6]: < 5.05
pIC50 [7]: 6.89
Drug metabolism [8]: metabolite_detected

SMILES: CCOCCOc1cccc(-c2cn([C@H]3C[C@@H](CN4CCC4)C3)c3ncnc(N)c23)c1
pIC50 [1]: 6.20

SMILES: Nc1ncnc2c1c(-c1cccc(OCCOC3CCCC3)c1)cn2[C@H]1C[C@@H](CN2CCC2)C1
pIC50 [1]: 6.31

SMILES: CC(Oc1cccc(-c2cn([C@H]3C[C@@H](CN4CCC4)C3)c3ncnc(N)c23)c1)c1ccccc1 (mixture of isomers)
pIC50 [1]: 5.43

The next lines start with results.

pIC50 [1]: 6.96
SMILES: Nc1ncnc2c1c(-c1cccc(OC[C@H]3CCCO3)c1)cn2[C@H]1C[C@@H](CN2CCC2)C1

pIC50 [1]: 7.22
SMILES: CC1(C)CC[C@H](COc2cccc(-c3cn([C@H]4C[C@@H](CN5CCC5)C4)c4ncnc(N)c34)c2)O1

pIC50 [1]: 6.89
SMILES: Nc1ncnc2c1c(-c1cccc(OC[C@@H]3CCCCO3)c1)cn2[C@H]1C[C@@H](CN2CCC2)C1

pIC50 [1]: 6.80
SMILES: CC(C)(C)OCCOc1cccc(-c2cn([C@H]3C[C@@H](CN4CCC4)C3)c3ncnc(N)c23)c1

pIC50 [1]: 6.59
SMILES: CC(C)OCCOc1cccc(-c2cn([C@H]3C[C@@H](CN4CCC4)C3)c3ncnc(N)c23)c1

pIC50 [1]: 7.10
pIC50 [3]: < 5.00
pIC50 [4]: < 5.00
pIC50 [5]: < 5.05
pIC50 [6]: < 5.05
SMILES: Nc1ncnc2c1c(-c1cccc(OC[C@@H]3CCCO3)c1)cn2[C@H]1C[C@@H](CN2CCC2)C1
pIC50 [7]: 5.44

pIC50 [1]: 6.43
SMILES: CC(C)CCOCCOc1cccc(-c2cn([C@H]3C[C@@H](CN4CCC4)C3)c3ncnc(N)c23)c1

pIC50 [1]: 7.10
Drug metabolism [8]: metabolite_notdetected
SMILES: Nc1ncnc2c1c(-c1cccc(OC[C@H]3CCCCO3)c1)cn2[C@H]1C[C@@H](CN2CCC2)C1

pIC50 [1]: 6.51
SMILES: CCCOCCOc1cccc(-c2cn([C@H]3C[C@@H](CN4CCC4)C3)c3ncnc(N)c23)c1

pIC50 [1]: 8.05
pIC50 [9]: 7.00
pIC50 [10]: 6.16
pIC50 [11]: 6.01
pIC50 [3]: < 5.00
pIC50 [12]: < 5.00
pIC50 [13]: 5.13
pIC50 [4]: < 5.00
pIC50 [5]: < 5.05
pIC50 [6]: < 5.05
solubility [14]: soluble
permeability [15]: permeable
Activity [16]: Not Active
Activity [17]: Not Active
Activity [18]: Not Active
SMILES: CC1(C)CC[C@@H](COc2cccc(-c3cn([C@H]4C[C@@H](CN5CCC5)C4)c4ncnc(N)c34)c2)O1
